According to US20090326234A1, “(S)-(-)-Amlodipine Camsylate or Hydrate Thereof And Pharmaceutical Composition Comprising Same” (Hanmi Pharm Co., Ltd., priority 2006, published 2009):
Where two headings read alike, the source gives them in different places.

Settings: for Purity (area %): HPLC; for degradation: after 36 hours exposure to sunlight; for appearance after exposure to sunlight: exposed to sunlight
[1] = Initial, before exposure to sunlight

Experimental: 100 mg each of the above-mentioned 6 salts was respectively placed in 6 test tubes to prepare a total of 36 samples (6 samples per salt), and they were exposed to sunlight for 36 hours. Then, samples of each salt were taken at 6 hour-intervals and stored in a cool and dark place. After 36 hours, each sample was diluted with a 20 mM ammonium acetate buffer solution (pH=5.0)—acetonitrile mixture (1:1, v/v) and analyzed by HPLC under the following conditions: • Column: Symmetry C8 (4.6 mm×100 mm, 3.5 μm, Water, US) • Eluent: 1 l of a solution of 7 g perchloric acid monohydrate and 1.74 g potassium monohydrogen phosphate in purified water, which adjusted to pH 2.8 by the addition of phosphoric acid.

Structure (SMILES) | Purity (area %) [1] [area %] | degradation | appearance after exposure to sunlight | Purity (area %) (exposed to sunlight 6 hours) | Purity (area %) (exposed to sunlight 12 hours) | Purity (area %) (exposed to sunlight 18 hours) | Purity (area %) (exposed to sunlight 24 hours) | Purity (area %) (exposed to sunlight 30 hours) | Purity (area %) (exposed to sunlight 36 hours)
CC1(C)[C@H]2CC[C@]1(CS(=O)(=O)O)C(=O)C2.CCOC(=O)C1=C(COCCN)NC(C)=C(C(=O)OC)[C@@H]1c1ccccc1Cl [(R)-Camsylate of Ref. Ex. 1, S-(−)-amlodipine (R)-camsylate] | 99.8 | about 5% | color change of their surface from off-white to brown, and they becomes partially melted | 99.9 | 99.7 | 99.0 | 98.1 | 96.2 | 94.8
CC1(C)C2CCC1(CS(=O)(=O)O)C(=O)C2.CCOC(=O)C1=C(COCCN)NC(C)=C(C(=O)OC)[C@@H]1c1ccccc1Cl.O (racemic) [(±)-10-Camsylate hydrate of Ex. 3, S-(−)-amlodipine (±)-10-camsylate hydrate] | 99.8 | – | – | 99.9 | 99.8 | 99.7 | 99.6 | 99.4 | 99.3
CCOC(=O)C1=C(COCCN)NC(C)=C(C(=O)OC)[C@@H]1c1ccccc1Cl.O=S(=O)(O)c1ccccc1 [Besylate, (S)-(−)-amlodipine besylate] | 99.8 | about 7% | color change of their surface from off-white to brown, and they becomes partially melted | 99.9 | 99.4 | 98.5 | 96.4 | 94.4 | 93.4
CCOC(=O)C1=C(COCCN)NC(C)=C(C(=O)OC)C1c1ccccc1Cl (stereo not drawn) [Nicotinate dehydrate, (s)-(−)-amlodipine nicotinate dihyrate] | 99.8 | ~2% | – | 99.6 | 99.0 | 98.3 | 98.3 | 98.2 | 97.9
CC1(C)[C@@H]2CC[C@@]1(CS(=O)(=O)O)C(=O)C2.CCOC(=O)C1=C(COCCN)NC(C)=C(C(=O)OC)[C@@H]1c1ccccc1Cl.O [(1S)-(+)-10-Camsylate hydrate of Ex. 1, S-(−)-amlodipine (1S)-(+)-10-camsylate hydrate] | 99.9 | – | – | 99.9 | 99.9 | 99.8 | 99.8 | 99.7 | 99.7
CC1(C)[C@@H]2CC[C@@]1(CS(=O)(=O)O)C(=O)C2.CCOC(=O)C1=C(COCCN)NC(C)=C(C(=O)OC)[C@@H]1c1ccccc1Cl [(1S)-(+)-10-Camsylate anhydride of Ex. 2, S-(−)-amlodipine (1S)-(+)-10-camsylate anhydride] | 99.9 | – | – | 99.9 | 99.9 | 99.9 | 99.8 | 99.7 | 99.7
